Reference: paper PMC12638379, “An innovative approach to development of new pyrazolylquinolin-2-one hybrids as dual EGFR and BRAF^V600E inhibitors” (Molecular Diversity, 2025)
Where “and” joins values, the source holds several entries; their conditions need not be identical. Identical values can stand only once. Like-named read-outs stand apart in the source and are kept apart here.

Legend:
NCI 60 cancer cell lines = assay: NCI anticancer screening over a panel of 60 cancer cells, single concentration 10 µM; assay type: cell-based, human; details: Homo sapiens, read-out: % Growth Inhibition (GI %)
Method in brief: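 Primary single-dose screen at 10 µM over the NCI panel of 60 human tumour cell lines (leukemia, CNS, lung, colon, kidney, ovary, breast, prostate). The standard NCI Developmental Therapeutics Program protocol was used.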

[1] = tested on: breast cancer (T47D) cell line; assay: MTT antiproliferative assay, T-47D
Procedure: The median inhibitory concentration (IC50) and GI50 (average IC50) against the three cancer cell lines were calculated. See Appendix B.
Cells were cultured using DMEM (Invitrogen/Life Technologies) supplemented with 10% FBS (Hyclone,), 10 ug/ml of insulin (Sigma), and 1% penicillin-streptomycin. Plate cells (cells density 1.2 – 1.8 × 10,000 cells/well) in a volume of 100µl complete growth medium + 100 ul of the tested compound per well in a 96-well plate for 24 hours before the MTT assay. In atypical experiment, one hundred micro liters of serial 10-fold diluted sterile tested compounds were added to final concentrations of […] using culture media as negative control. After 24 h of culture incubation and supernatants discarded. HOP-92 lung, MOLT-4 leukemia, and T-47D breast cell lines were trypsinized and washed with Ca2/Mg2 free PBS (pH 7.2). we removed cultures from incubator into laminar flow hood or other sterile work area. […] Each test should include a blank containing complete medium without cells. […] Add reconstituted MTT in an amount equal to 10% of the culture medium volume. Return cultures to incubator for 2-4 hours depending on cell type and maximum cell density. […] Spectrophotometrically absorbance was measured at a wavelength of 570 nm. Measure the background absorbance of multiwell plates at 690 nm and subtract from the […] measurement. Results from all experiments were recorded and the percentage of viable cells was calculated.

[2] = tested on: lung cancer (HOP-92) cell line; assay: MTT antiproliferative assay, HOP-92; assay type: cell-based, human
Procedure: […]. […] See Appendix B.
(§1) After 24 h of culture incubation and supernatants discarded.

[3] = tested on: leukemia (MOLT-4) cell line; assay: MTT antiproliferative assay, MOLT-4; assay type: cell-based, human; details: for IC50: read-out: Antiproliferative activity IC50 ± SEM, MOLT-4
Procedure: as §1

EGFR = target: T1, EGFR (Homo sapiens, UniProt P00533); assay: EGFR inhibitory assay; assay type: biochemical; details: for %inh: EGFR, unit not given
T1 construct: EGFR cytoplasmic domain (EGFR-CD, amino acids 645–1186); His6 (N); made in house; host or cells: Sf-9 insect cells (baculovirus)
T1 sequence (P00533 669-1210): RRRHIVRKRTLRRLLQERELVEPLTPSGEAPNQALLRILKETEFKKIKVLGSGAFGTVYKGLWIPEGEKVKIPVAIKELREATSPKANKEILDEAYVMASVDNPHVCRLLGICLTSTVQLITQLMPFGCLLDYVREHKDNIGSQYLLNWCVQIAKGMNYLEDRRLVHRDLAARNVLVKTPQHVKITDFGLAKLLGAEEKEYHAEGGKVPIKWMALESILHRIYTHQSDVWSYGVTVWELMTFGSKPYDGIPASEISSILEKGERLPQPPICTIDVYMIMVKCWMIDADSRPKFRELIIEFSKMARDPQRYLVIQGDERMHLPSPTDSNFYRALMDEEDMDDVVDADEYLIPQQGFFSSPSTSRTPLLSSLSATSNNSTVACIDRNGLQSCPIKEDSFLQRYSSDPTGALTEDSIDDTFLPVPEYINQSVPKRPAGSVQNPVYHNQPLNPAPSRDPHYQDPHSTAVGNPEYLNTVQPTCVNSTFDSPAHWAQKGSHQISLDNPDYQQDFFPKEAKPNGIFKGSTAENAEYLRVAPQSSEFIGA

BRAF^V600E = BRAF^V600E (Homo sapiens, UniProt P15056, V600E); assay: BRAF^V600E inhibitory assay (B-Raf (V600E) Kinase Assay); assay type: biochemical; details: read-out: BRAF^V600E inhibition IC50 ± SEM
BRAF^V600E, sequence (P15056 whole entry V600E): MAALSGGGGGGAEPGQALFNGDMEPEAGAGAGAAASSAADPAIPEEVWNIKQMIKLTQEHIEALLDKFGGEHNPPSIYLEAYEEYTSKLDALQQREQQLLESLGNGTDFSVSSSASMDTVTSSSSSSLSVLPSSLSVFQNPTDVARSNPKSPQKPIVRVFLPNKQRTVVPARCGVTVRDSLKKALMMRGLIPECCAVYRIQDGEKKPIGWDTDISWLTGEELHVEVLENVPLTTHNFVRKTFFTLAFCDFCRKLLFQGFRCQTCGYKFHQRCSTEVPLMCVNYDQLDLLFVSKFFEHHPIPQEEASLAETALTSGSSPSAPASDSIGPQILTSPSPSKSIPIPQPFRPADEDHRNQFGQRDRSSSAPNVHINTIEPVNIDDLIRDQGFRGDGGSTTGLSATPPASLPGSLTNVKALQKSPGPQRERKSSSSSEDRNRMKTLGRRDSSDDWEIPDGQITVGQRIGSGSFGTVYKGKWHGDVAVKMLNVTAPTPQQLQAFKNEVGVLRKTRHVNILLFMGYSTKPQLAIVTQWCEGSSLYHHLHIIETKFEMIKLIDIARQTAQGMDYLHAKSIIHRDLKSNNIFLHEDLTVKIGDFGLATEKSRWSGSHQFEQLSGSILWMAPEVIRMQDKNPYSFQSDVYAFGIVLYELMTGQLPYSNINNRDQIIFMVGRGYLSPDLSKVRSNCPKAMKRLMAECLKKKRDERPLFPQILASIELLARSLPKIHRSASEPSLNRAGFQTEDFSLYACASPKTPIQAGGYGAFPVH

[4] = MTT cytotoxicity on normal cell line WI-38; details: human, WI-38 normal cells, % viability

Structure (SMILES): C/C(=N\Nc1ccc(S(N)(=O)=O)cc1)c1cnn(-c2cc(=O)[nH]c3ccc(Br)cc23)c1C [Compound 4e, (E)-4-(2-(1-(1-(6-bromo-2-oxo-1,2-dihydroquinolin-4-yl)-5-methyl-1H-pyrazol-4-yl)ethylidene)hydrazineyl)benzenesulfonamide]
- inhibition at 10 µM (NCI 60 cancer cell lines; SK-OV-3, Ovarian cancer SK-OV-3, 10 μM): 30.8%
- inhibition at 10 µM (NCI 60 cancer cell lines; SN12C, Renal cancer SN12C, 10 μM): 38.8%
- inhibition at 10 µM (NCI 60 cancer cell lines; SNB-19, CNS Cancer SNB-19, 10 μM): 54%
- inhibition at 10 µM (NCI 60 cancer cell lines; SNB-75, CNS Cancer SNB-75, 10 μM): 78%
- inhibition at 10 µM (NCI 60 cancer cell lines; SW-620, Colon cancer SW-620, 10 μM): 24.3%
- inhibition at 10 µM (NCI 60 cancer cell lines; T47D, Breast cancer T-47D, 10 μM): 82.5%
- inhibition at 10 µM (NCI 60 cancer cell lines; TK-10, Renal cancer TK-10, 10 μM): < 5%
- inhibition at 10 µM (NCI 60 cancer cell lines; U-251, CNS Cancer U251, 10 μM): 62.1%
- inhibition at 10 µM (NCI 60 cancer cell lines; UACC-62, Melanoma UACC-62, 10 μM): 88.6%
- inhibition at 10 µM (NCI 60 cancer cell lines; UACC-257, Melanoma UACC-257, 10 μM): 33.7%
- inhibition at 10 µM (NCI 60 cancer cell lines; UO-31, Renal cancer UO-31, 10 μM): 45.2%
- viability at 0.4 µM ([1]; Homo sapiens, T47D, 0.4uM (log -0.41)): 74%
- viability at 6.3 µM ([1]; Homo sapiens, T47D, 6.3uM (log 0.796)): 52.1%
- viability at 25 µM ([1]; Homo sapiens, T47D, 25uM (log 1.398)): 42.1%
- viability at 100 µM ([1]; Homo sapiens, T47D, 100uM (log 2), MTT absorbance 450 nm): 32.1%
- IC50 ([1]; Homo sapiens, T47D, read-out: Antiproliferative activity IC50 ± SEM, T-47D, MTT): 8.02 ± 0.31 µM
- % viability ([1]; T47D, 1.6ug (log 0.193)): 61.86%
- % viability ([1]; T47D, 25uM (log 1.398), listed as Ws5, 25 µM): 42.072%
- IC50 ([1]; read-out: Antiproliferative activity IC50 ± SEM, T-47D, MTT): 8.62 ± 0.34 µM
- % viability ([2]; HOP-92, MTT, 0.4uM, listed as Ws5, 0.4 µM): 71.413%
- % viability ([2]; HOP-92, MTT, 1.6uM, listed as Ws5, 1.6 µM): 60.375%
- % viability ([2]; HOP-92, MTT, 6.3uM, listed as Ws5, 6.3 µM): 47.848%
- % viability ([2]; HOP-92, MTT, 25uM, listed as Ws5, 25 µM): 34.437%
- viability at 0.4 µM ([2]; Homo sapiens, HOP-92, HOP-92, MTT, 0.4uM, read-out: % viability): 71.4%
- viability at 1.6 µM ([2]; Homo sapiens, HOP-92, HOP-92, MTT, 1.6uM, read-out: % viability): 60.4%
- viability at 6.3 µM ([2]; Homo sapiens, HOP-92, HOP-92, MTT, 6.3uM, read-out: % viability): 47.9%
- viability at 25 µM ([2]; Homo sapiens, HOP-92, HOP-92, MTT, 25uM, read-out: % viability): 34.4%
- viability at 100 µM ([2]; Homo sapiens, HOP-92, HOP-92, MTT, 100uM, read-out: % viability): 26.5%
- IC50 ([2]; Homo sapiens, HOP-92, HOP-92, concentration used in RT-PCR, read-out: IC50): 4.98 µM
- IC50 ([2]; Homo sapiens, HOP-92, HOP-92, concentration used in apoptosis assay, read-out: Conc IC50): 4.98 µM
- IC50 ([2]; Homo sapiens, HOP-92, HOP-92, concentration used in cell cycle analysis, read-out: IC50): 4.98 µM
- IC50 ([2]; Homo sapiens, HOP-92, MTT, read-out: Antiproliferative activity IC50 ± SEM, HOP-92): 4.98 ± 0.2 µM
- IC50 ([3]; Homo sapiens, MOLT-4, MTT): 8.62 ± 0.34 µM
- % viability ([3]; MOLT-4, 0.4ug (log conc. -0.41)): 65.87%
- % viability ([3]; MOLT-4, 1.6ug (log conc. 0.193), listed as Ws5): 58.42% and 58.419%
- % viability ([3]; MOLT-4, 6.3ug (log conc. 0.796), listed as Ws5): 52.84% and 52.844%
- % viability ([3]; MOLT-4, 25ug (log conc. 1.398), listed as Ws5): 44.14% and 44.141%
- % viability ([3]; MOLT-4, 100ug (log conc. 2)): 35.495%
- IC50 ([3]; MTT): 8.02 ± 0.31 µM
- %inh (EGFR; conc 0.01 (log -2)): 37%
- %inh (EGFR; conc 0.1 (log -1)): 50.6%
- %inh (EGFR; conc 1 (log 0)): 75.8%
- %inh (EGFR; conc 10 (log 1)): 88.1%
- %inh (EGFR; conc 100 (log 2)): 94.2%
- IC50 (EGFR; read-out: EGFR inhibition IC50 ± SEM): 55 ± 2 nM
- IC50 (BRAF^V600E): 68 ± 3 nM
- viability at 24 h, 0.4 µM ([4]; WI38, 0.4uM (log conc. -0.41)): 83.2%
- viability at 24 h, 1.6 µM ([4]; WI38, 1.6uM (log conc. 0.19)): 70.8%
- viability at 24 h, 6.3 µM ([4]; WI38, 6.3uM (log conc. 0.8)): 61%
- viability at 24 h, 25 µM ([4]; WI38, 25uM (log conc. 1.4)): 50.4%
- viability at 24 h, 100 µM ([4]; WI38, 100uM (log conc. 2)): 42.1%
